Columns and labels:
[1] = target: Class 1 histone deacetylase (Homo sapiens, UniProt Q13547+O15379+Q92769+Q9BY41); assay: Inhibition Class 1 histone deacetylase in human HeLa nuclear extracts using Fluor-de- Lys-green substrate by fluorescence assay; format: cell-free
Histone deacetylase 2 = Histone deacetylase 2 (Homo sapiens, UniProt Q92769); assay: Inhibition of human recombinant HDAC2 pre-incubated for 30 mins before substrate addition and measured after 30 mins by fluorescence based assay
Histone deacetylase 1 = Histone deacetylase 1 (Homo sapiens, UniProt Q13547); assay: Inhibition of human recombinant HDAC1 pre-incubated for 30 mins before substrate addition and measured after 30 mins by fluorescence based assay
Chain of Histone deacetylase 1 (Q13547 whole entry): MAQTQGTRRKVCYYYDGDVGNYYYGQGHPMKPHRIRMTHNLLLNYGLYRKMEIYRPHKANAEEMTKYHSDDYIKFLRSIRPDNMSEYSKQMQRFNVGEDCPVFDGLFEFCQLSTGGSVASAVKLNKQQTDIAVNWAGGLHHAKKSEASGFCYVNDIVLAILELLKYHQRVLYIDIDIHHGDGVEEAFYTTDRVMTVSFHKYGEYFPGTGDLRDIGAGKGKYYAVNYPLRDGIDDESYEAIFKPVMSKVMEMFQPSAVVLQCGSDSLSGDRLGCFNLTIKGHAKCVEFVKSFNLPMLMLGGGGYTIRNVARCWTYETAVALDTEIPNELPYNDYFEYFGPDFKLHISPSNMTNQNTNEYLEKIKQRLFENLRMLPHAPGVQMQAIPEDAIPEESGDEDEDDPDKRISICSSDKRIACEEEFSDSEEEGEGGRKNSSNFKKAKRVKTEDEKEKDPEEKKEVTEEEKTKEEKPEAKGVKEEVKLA

Chain of Histone deacetylase 2 (Q92769 whole entry): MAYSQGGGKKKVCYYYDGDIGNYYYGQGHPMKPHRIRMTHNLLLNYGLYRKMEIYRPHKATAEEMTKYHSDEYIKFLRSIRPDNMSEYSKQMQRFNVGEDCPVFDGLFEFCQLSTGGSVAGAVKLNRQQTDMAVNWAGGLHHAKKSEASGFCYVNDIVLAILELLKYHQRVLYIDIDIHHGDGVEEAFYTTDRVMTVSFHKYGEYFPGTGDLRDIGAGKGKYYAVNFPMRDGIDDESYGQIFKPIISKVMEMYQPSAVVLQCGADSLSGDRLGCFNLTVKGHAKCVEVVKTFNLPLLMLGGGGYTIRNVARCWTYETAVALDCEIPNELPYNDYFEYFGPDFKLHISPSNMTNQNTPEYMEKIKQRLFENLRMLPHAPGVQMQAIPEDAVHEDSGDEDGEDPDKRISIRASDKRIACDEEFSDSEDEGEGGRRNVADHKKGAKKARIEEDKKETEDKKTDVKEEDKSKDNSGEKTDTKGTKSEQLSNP

Row | SMILES | IC50 [1] | IC50 (Histone deacetylase 2) | IC50 (Histone deacetylase 1)
1 | COc1ccccc1CNCc1ccc(/C=C/C(=O)NO)cc1 | 278 nM | 1490 nM | 610 nM
2 | COc1ccc(OC)c(CNCc2ccc(/C=C/C(=O)NO)cc2)c1 | 292 nM | 1750 nM | 620 nM
3 | COc1cccc(OC)c1CNCc1ccc(/C=C/C(=O)NO)cc1 | 235 nM | 1080 nM | 636 nM
4 | COc1ccc(CNCc2ccc(/C=C/C(=O)NO)cc2)cc1OC | 371 nM | 1890 nM | 1260 nM
5 | COc1cccc(CNCc2ccc(/C=C/C(=O)NO)cc2)c1OC | 296 nM | 950 nM | 602 nM
6 | COc1cc(CNCc2ccc(/C=C/C(=O)NO)cc2)cc(OC)c1 | 415 nM | 1270 nM | 837 nM
7 | COc1ccc(CNCc2ccc(/C=C/C(=O)NO)cc2)c(OC)c1 | 258 nM | 994 nM | 449 nM

More lines, now with the values ahead:

Row | IC50 [1] | IC50 (Histone deacetylase 2) | IC50 (Histone deacetylase 1) | SMILES
8 | 195 nM | 926 nM | 381 nM | COc1ccc(CNCc2ccc(/C=C/C(=O)NO)cc2)cc1
9 | 420 nM | 819 nM | 463 nM | COc1cccc(CNCc2ccc(/C=C/C(=O)NO)cc2)c1
10 | 370 nM |  |  | O=C(/C=C/c1ccc(CNCc2ccccc2)cc1)NO

Reference: ChEMBL document CHEMBL4385666, “Exploring hydroxamic acid inhibitors of HDAC1 and HDAC2 using small molecule tools and molecular or homology modelling” (Bioorg Med Chem Lett, 2019)
